Source: publication PMC12057046, “Elucidation of short linear motif-based interactions of the MIT and rhodanese domains of the ubiquitin-specific protease 8” (Biology Direct, 2025)

These sequences were tested on USP8 MIT domain (assay: Peptide-phage display-based deep mutational scanning (DMS), USP8 MIT domain). Conditions: bait USP8_MIT__P40818_1_142; EFCAB12 (Q6NXP0) 2-17; pair of mutant with wild-type wt_00016 (MDDDYEAYHSLFLSLL); sheet S3.B_ProP-PD_pairs.
Type: binding, human
Procedure: The residues of these 16 amino acid-long wild-type peptides were substituted to all natural amino acid residues, except cysteine, in all positions (Supplementary Table S2A). The designed peptide sequences were reverse-translated to oligonucleotides optimized to the codon usage of E. coli. The required flanking regions (5´[…] and 3´[…]) were added for library construction. The library was generated as previously described.
Four rounds of phage selections were carried out using the second generation human disorderome library or the constructed deep mutational scanning library. At least three individual replicates were used for each bait protein. 10 µg of GST-tagged proteins or GST control (diluted in PBS from the stock of proteins kept in the purification elution buffer) were immobilized in 100 µL PBS on a 96-well MaxiSorp (Nunc) plate overnight at 4 °C. The plates were incubated with blocking buffer (with 0.5% BSA in PBS) for 1 h at 4 °C followed by washing with 0.05% Tween 20 in PBS four times. The naïve phage library (10^11 CFU) was diluted in 1/5th volume PEG/NaCl (20% PEG-8000, 0.4 M NaCl) and 1X PBS, incubated on ice for 10 min and centrifuged at 10,000 [drawing 3] g for 10 min. The pellet was resuspended in the volume of PBS (100 µL/ well). The GST-coated control plate was incubated with 100 µL library per well in PBS for 1 h at 4 °C to remove non-specific binders. The supernatant was transferred to the target wells and incubated for 2 h at 4 °C. The wells were washed five times with 0.05% Tween 20 in PBS and the bound phages were eluted with 100 µL per well log-phase E. coli OmniMAX by incubating at 37° C while shaking. After 30 min, M13KO7 helper phages were added and incubated for an additional 45 min. The bacterial cultures were transferred to 1 mL 2YT supplemented with 100 µg/mL carbenicillin, 30 µg/mL kanamycin and 0.3 mM IPTG and grew overnight at 37 °C while shaking. The following day the cultures were centrifuged for 10 min at 2,000 [drawing 4] g, 4 °C. 1/10th volume of 10 [drawing 5] PBS was added to adjust the pH and heated at 65 °C for 10 min. The phage pools from each round were used as in-phages for the next round of selections.
The samples were prepared for NGS as previously described. Peptide-coding regions of the enriched phage pools were amplified and barcoded using Phusion High-Fidelity PCR Master Mix (Thermo Fisher) for 22 cycles and confirmed by 2% agarose gel electrophoresis. The PCR products were normalized with 25 µL Mag-bind Total Pure NGS beads (Omega Biotek) and 10 µL of each eluted sample (Qiagen Elution Buffer) was pooled and cleaned-up with a PCR purification kit (Qiagen). The PCR product was confirmed by 2% agarose electrophoresis and the band was extracted with QIAquick Gel extraction Kit (Qiagen) and eluted with 30 µL TE buffer. The dsDNA was quantified using QuantiT PicoGreen dsDNA Assay Kit (Thermo Fisher) and sent for NGS (Illumina MiSeq v3, 1 × 150 bp read setup, 20% PhiX, NGI SciLifeLab facility, Sweden). The NGS data were demultiplexed, adapter regions were trimmed and sequences with an average quality of at least 20 were translated to peptide sequences. The NGS data were analysed using custom Python scripts. The total read NGS counts for each selection experiment of each peptide sequence were compiled and annotated in PepTools (https://slim.icr.ac.uk/tools/peptools/). Since ProP-PD is in essence a competition assay, the possibility of the input phage library influencing the selection outcome was explored. For this, the Pearson correlation coefficient, p-value and coefficient of determination were calculated for all peptide NGS count fractions in the library coverage vs. in the selections results (Supplementary Fig. S7; Supplementary Table S2B; Supplementary Table S3B; Supplementary Table S7B). Pearson correlation coefficient and p-value were calculated using Python’s SciPy library. […]

Row | Sequence | hit_pair_ratio
1 | ADDDYEAYHSLFLSLL [mut_04321] | 112.64
2 | DDDDYEAYHSLFLSLL [mut_04322] | 1.56
3 | EDDDYEAYHSLFLSLL [mut_04323] | 6.98
4 | FDDDYEAYHSLFLSLL [mut_04324] | 112.64
5 | GDDDYEAYHSLFLSLL [mut_04325] | 7.04
6 | HDDDYEAYHSLFLSLL [mut_04326] | 42.37
7 | IDDDYEAYHSLFLSLL [mut_04327] | 43.89
8 | LDDDYEAYHSLFLSLL [mut_04329] | 1.88
9 | MADDYEAYHSLFLSLL [mut_04339] | 13.05
10 | MDADYEAYHSLFLSLL [mut_04357] | 1.08
11 | MDDDAEAYHSLFLSLL [mut_04393] | 42.41
12 | MDDDDEAYHSLFLSLL [mut_04394] | 12.10
13 | MDDDFEAYHSLFLSLL [mut_04396] | 37.55
14 | MDDDGEAYHSLFLSLL [mut_04397] | 12.55
15 | MDDDHEAYHSLFLSLL [mut_04398] | 169.63
16 | MDDDIEAYHSLFLSLL [mut_04399] | 3.38
17 | MDDDKEAYHSLFLSLL [mut_04400] | 168.96
18 | MDDDLEAYHSLFLSLL [mut_04401] | 337.92
19 | MDDDQEAYHSLFLSLL [mut_04405] | 14.11
20 | MDDDVEAYHSLFLSLL [mut_04409] | 337.92
21 | MDDDWEAYHSLFLSLL [mut_04410] | 56.54

Row | Sequence | hit_pair_ratio
22 | MDDDYAAYHSLFLSLL [mut_04411] | 3.89
23 | MDDDYDAYHSLFLSLL [mut_04412] | 12.14
24 | MDDDYEDYHSLFLSLL [mut_04429] | 4.40
25 | MDDDYEEYHSLFLSLL [mut_04430] | 4.58
26 | MDDDYEFYHSLFLSLL [mut_04431] | 83.09
27 | MDDDYEGYHSLFLSLL [mut_04432] | 1.19
28 | MDDDYEIYHSLFLSLL [mut_04434] | 18.85
29 | MDDDYEKYHSLFLSLL [mut_04435] | 48.44
30 | MDDDYELYHSLFLSLL [mut_04436] | 7.38
31 | MDDDYEMYHSLFLSLL [mut_04437] | 59.15
32 | MDDDYENYHSLFLSLL [mut_04438] | 2.33
33 | MDDDYEPYHSLFLSLL [mut_04439] | 9.13
34 | MDDDYEQYHSLFLSLL [mut_04440] | 112.94
35 | MDDDYERYHSLFLSLL [mut_04441] | 84.82
36 | MDDDYESYHSLFLSLL [mut_04442] | 37.68
37 | MDDDYETYHSLFLSLL [mut_04443] | 112.94
38 | MDDDYEVYHSLFLSLL [mut_04444] | 28.27
39 | MDDDYFAYHSLFLSLL [mut_04413] | 168.96
40 | MDDDYGAYHSLFLSLL [mut_04414] | 33.85
41 | MDDDYHAYHSLFLSLL [mut_04415] | 84.48

Same assay, conditions: sheet S3.B_ProP-PD_pairs; bait USP8_MIT__P40818_1_142; ratio within the wild-type/mutant pair, larger over smaller averaged fraction (direction from fraction_wt and fraction_mut)

Row | Sequence | hit_pair_ratio
42 | AEVSDIESRIAALRAA | 40.88
43 | EEVSDIESRIAALRAA | 7.79
44 | FEVSDIESRIAALRAA | 3.72
45 | LEVSDIESRIAALRAA | 16.71
46 | MDDDYEAFHSLFLSLL | 25.99
47 | MDDDYEAIHSLFLSLL | 132.20
48 | MDDDYEALHSLFLSLL | 56.39
49 | MDDDYEAMHSLFLSLL | 337.92
50 | MDDDYEANHSLFLSLL | 42.28
51 | MDDDYEASHSLFLSLL | 112.64
52 | MDDDYEATHSLFLSLL | 17.79
53 | MDDDYEAVHSLFLSLL | 48.27
54 | MDDDYEAWHSLFLSLL | 1.40
55 | MDDDYEAYASLFLSLL | 5.54
56 | MDDDYEAYDSLFLSLL | 337.92
57 | MDDDYEAYFSLFLSLL | 29.21
58 | MDDDYEAYHALFLSLL | 168.96
59 | MDDDYEAYHDLFLSLL | 11.69
60 | MDDDYEAYHELFLSLL | 112.94
61 | MDDDYEAYHGLFLSLL | 10.26
62 | MDDDYEAYHHLFLSLL | 11.27
63 | MDDDYEAYHKLFLSLL | 169.63
64 | MDDDYEAYHLLFLSLL | 17.79
65 | MDDDYEAYHMLFLSLL | 7.51
66 | MDDDYEAYHNLFLSLL | 1.00
67 | MDDDYEAYHPLFLSLL | 19.88

Row | Sequence | hit_pair_ratio
68 | MDDDYEAYHQLFLSLL | 337.92
69 | MDDDYEAYHRLFLSLL | 41.80
70 | MDDDYEAYHSGFLSLL | 337.92
71 | MDDDYEAYHSHFLSLL | 24.22
72 | MDDDYEAYHSIFLSLL | 10.94
73 | MDDDYEAYHSKFLSLL | 169.63
74 | MDDDYEAYHSLALSLL | 337.92
75 | MDDDYEAYHSLFGSLL | 337.92
76 | MDDDYEAYHSLFISLL | 5.63
77 | MDDDYEAYHSLFLALL | 2.81
78 | MDDDYEAYHSLFLFLL | 5.36
79 | MDDDYEAYHSLFLHLL | 2.92
80 | MDDDYEAYHSLFLLLL | 4.48
81 | MDDDYEAYHSLFLMLL | 26.03
82 | MDDDYEAYHSLFLNLL | 33.93
83 | MDDDYEAYHSLFLPLL | 337.92
84 | MDDDYEAYHSLFLSAL | 337.92
85 | MDDDYEAYHSLFLSGL | 337.92
86 | MDDDYEAYHSLFLSHL | 84.48
87 | MDDDYEAYHSLFLSLF | 169.63
88 | MDDDYEAYHSLFLSLI | 168.96
89 | MDDDYEAYHSLFLSLK | 19.88
90 | MDDDYEAYHSLFLSPL | 33.79
91 | MDDDYEAYHSLFLSQL | 337.92
92 | MDDDYEAYHSLFLSRL | 337.92
93 | MDDDYEAYHSLFLSSL | 337.92

Row | Sequence | hit_pair_ratio
94 | MDDDYEAYHSLFLTLL | 2.44
95 | MDDDYEAYHSLFLWLL | 2.95
96 | MDDDYEAYHSLFLYLL | 8.88
97 | MDDDYEAYHSLFVSLL | 37.55
98 | MDDDYEAYHSLKLSLL | 30.72
99 | MDDDYEAYHSLSLSLL | 337.92
100 | MDDDYEAYHSLYLSLL | 1.65
101 | MDDDYEAYHSMFLSLL | 168.96
102 | MDDDYEAYHSNFLSLL | 168.96
103 | MDDDYEAYHSPFLSLL | 169.63
104 | MDDDYEAYHSRFLSLL | 172.84
105 | MDDDYEAYHTLFLSLL | 169.63
106 | MDDDYEAYHVLFLSLL | 37.55
107 | MDDDYEAYHWLFLSLL | 1.50
108 | MDDDYEAYHYLFLSLL | 1.94
109 | MDDDYEAYISLFLSLL | 13.00
110 | MDDDYEAYKSLFLSLL | 84.48
111 | MDDDYEAYLSLFLSLL | 22.58
112 | MDDDYEAYNSLFLSLL | 169.63
113 | MDDDYEAYQSLFLSLL | 28.27
114 | MDDDYEAYSSLFLSLL | 33.87
115 | MDDDYEAYWSLFLSLL | 28.16
116 | MDDDYEAYYSLFLSLL | 24.06
117 | MDDDYEWYHSLFLSLL | 1.12
118 | MDDDYEYYHSLFLSLL | 2.04
